The source of these data is US20250034173A1, “PYRIDO[4,3-D]PYRIMIDINE COMPOUNDS” (PFIZER INC., priority 2023, published 2025).

Where only a bound is given, the exact number is not on record here.

In assay [1] the target is T1, KRAS Wild Type (Homo sapiens (Human), UniProt P01116). The assay is described as follows: SPR binding affinity and kinetics, GTPγS-loaded KRAS Wild Type. Conditions: GTPγS loaded protein, geomean. The method in brief: (§1)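 Fits to the SPR data were assessed through c2 and whether residues scattered randomly; dissociation phases ran ≥3600 seconds, regeneration omitted.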
(In general: In SPR one partner is held on a chip, and binding of the other changes the refractive index at the surface.)

The target of assay [2] is T2, KRAS G12C (Homo sapiens (Human), UniProt P01116, G12C). The assay is described as follows: SPR binding affinity and kinetics, GDP-loaded KRAS G12C. The settings on record: GDP loaded protein, geomean. An excerpt:
(§2) No additional regeneration was used.
(§3) Compound dissociation was monitored for at least 3600 seconds. […] No additional regeneration was used.
(§4) The adequateness of the fit was judged by c2 values and the randomness of residue distribution.

The test system of assay [3] is H358 (non-small cell lung cancer cell line). The assay is described as follows: KRAS Cell Titer Glo (CTG) cell proliferation assay, H358. It is filed as cell-based. Conditions: Homo sapiens, NCI-H358, 168 h; H358 cells, 7-day CTG, geomean IC50. The method in brief: (§5)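 Compounds pre-dispensed in 0.1% DMSO before seeding H358 (300 cells/well), SW620 (750) or PANC08.13 (600); 7-day exposure at 37 °C, 5% CO2. Viability by CellTiter-Glo luminescence after 15 min at room temperature. Percent effect normalised to DMSO (0%) and 1 uM trametinib (100%); geomean IC50.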

The subject of assay [4] is SW620 (colorectal cancer cell line). The assay is described as follows: KRAS Cell Titer Glo (CTG) cell proliferation assay, SW620. It is filed as cell-based. The settings on record: Homo sapiens, SW-620, 168 h; SW620 cells, 7-day CTG, geomean IC50. The method in brief: as §5
Background: ATP-based viability assays read luminescence as a measure of living cells.

Assay [5] concerns PANC08.13 (pancreatic cancer cell line). The assay can be described thus: KRAS Cell Titer Glo (CTG) cell proliferation assay, PANC08.13. The assay is classed as cell-based. The settings on record: Homo sapiens, PANC-08-13, 168 h; PANC08.13 cells, 7-day CTG, geomean IC50. The method in brief: as §5
The target in assay [6] is T2, KRAS G12C. The assay is described as follows: SPR binding affinity and kinetics, GTPγS-loaded KRAS G12C. The settings on record: GTPγS loaded protein, geomean. In outline:
as §1

Assay [7] deals with T3, KRAS G12V (Homo sapiens (Human), UniProt P01116, G12V). The assay is described as follows: SPR binding affinity and kinetics, GTPγS-loaded KRAS G12V. Conditions: GTPγS loaded protein, geomean. In outline:
as §1

Assay [8] deals with T3, KRAS G12V. The assay can be described thus: SPR binding affinity and kinetics, GDP-loaded KRAS G12V. The settings on record: GDP loaded protein, geomean.
From the text: as §2, §3, §4

For assay [9], the target named is T4, KRAS G12D (Homo sapiens (Human), UniProt P01116, G12D). The assay is described as follows: SPR binding affinity and kinetics, GTPγS-loaded KRAS G12D. Conditions: GTPγS loaded protein, geomean. In outline:
as §1

The target in assay [10] is T1, KRAS Wild Type. The assay is described as follows: SPR binding affinity and kinetics, GDP-loaded KRAS Wild Type. The settings on record: GDP loaded protein, geomean.
From the text: as §2, §3, §4

The target of assay [11] is T4, KRAS G12D. The assay can be described thus: SPR binding affinity and kinetics, GDP-loaded KRAS G12D. The settings on record: GDP loaded protein, geomean.
From the text: as §2, §3, §4

The target in the next assay is NRAS Wild Type (Homo sapiens (Human), UniProt P01111). The assay is described as follows: SPR binding affinity and kinetics, GTPγS-loaded NRAS Wild Type. Conditions: GTPγS loaded protein, geomean.
From the text: as §2, §3, §4

The target of another assay is HRAS Wild Type (Homo sapiens (Human), UniProt P01112). The assay is described as follows: SPR binding affinity and kinetics, GTPγS-loaded HRAS Wild Type. Conditions: GTPγS loaded protein, geomean.
From the text: as §2, §3, §4

T2 sequence (P01116 other isoform, or with tags, fused parts or gaps G12C): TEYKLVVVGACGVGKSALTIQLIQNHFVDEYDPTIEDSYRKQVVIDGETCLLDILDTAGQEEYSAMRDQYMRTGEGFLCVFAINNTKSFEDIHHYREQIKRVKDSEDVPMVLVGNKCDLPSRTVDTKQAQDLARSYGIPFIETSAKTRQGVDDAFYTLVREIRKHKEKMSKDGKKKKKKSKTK
T3 sequence (P01116 other isoform, or with tags, fused parts or gaps G12V): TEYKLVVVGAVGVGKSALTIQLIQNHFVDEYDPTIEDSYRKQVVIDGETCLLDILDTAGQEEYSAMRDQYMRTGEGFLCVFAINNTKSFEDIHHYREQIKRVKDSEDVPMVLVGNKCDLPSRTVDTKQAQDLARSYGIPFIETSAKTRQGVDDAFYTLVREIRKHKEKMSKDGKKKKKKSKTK
T1 sequence (P01116 other isoform, or with tags, fused parts or gaps): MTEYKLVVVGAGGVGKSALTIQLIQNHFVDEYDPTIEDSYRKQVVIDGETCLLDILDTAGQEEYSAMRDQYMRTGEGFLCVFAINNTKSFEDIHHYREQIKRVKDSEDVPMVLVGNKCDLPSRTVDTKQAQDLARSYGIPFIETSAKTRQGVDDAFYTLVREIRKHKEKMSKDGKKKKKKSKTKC
T4 sequence (P01116 other isoform, or with tags, fused parts or gaps G12D): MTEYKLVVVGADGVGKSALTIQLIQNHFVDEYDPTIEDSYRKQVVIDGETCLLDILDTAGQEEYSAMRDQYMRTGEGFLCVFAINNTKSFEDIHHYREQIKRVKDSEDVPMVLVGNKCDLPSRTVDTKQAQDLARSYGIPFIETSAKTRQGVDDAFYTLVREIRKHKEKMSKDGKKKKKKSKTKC
NRAS Wild Type, sequence (P01111 2-185): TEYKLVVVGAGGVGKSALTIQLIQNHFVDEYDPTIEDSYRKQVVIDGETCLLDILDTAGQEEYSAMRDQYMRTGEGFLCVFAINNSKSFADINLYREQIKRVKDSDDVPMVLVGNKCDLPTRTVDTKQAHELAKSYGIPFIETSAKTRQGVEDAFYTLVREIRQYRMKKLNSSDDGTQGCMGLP
HRAS Wild Type, sequence (P01112 2-184): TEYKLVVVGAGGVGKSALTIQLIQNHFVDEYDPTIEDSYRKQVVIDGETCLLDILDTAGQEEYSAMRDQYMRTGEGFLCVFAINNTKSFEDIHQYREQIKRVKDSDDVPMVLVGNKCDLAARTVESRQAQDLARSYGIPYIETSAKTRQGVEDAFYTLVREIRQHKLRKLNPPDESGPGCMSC

As to `Fc1c(-c2cccc3[nH]ncc23)nc2c3c(nc(OC[C@@]45CCCN4C[C@H](F)C5)nc13)N1CCCOC[C@H]1CO2` [Example 3, (8aS)-4-fluoro-2-{[(2R,7aS)-2-fluorotetrahydro-1H-pyrrolizin-7a(5H)-yl]methoxy}-5-(1H-indazol-4-yl)-8a,9,12,13-tetrahydro-8H,11H-7,10-dioxa-1,3,6,13a-tetraazanaphtho[1,8-ab]heptalene], the Kd (commonly the constant that tells how readily two partners part at equilibrium) is above 1000 nM on KRAS Wild Type [1]; above 10000 nM on KRAS G12C [2]; above 1000 nM on KRAS G12C [6]; above 1000 nM on KRAS G12V [7]; above 10000 nM on KRAS G12V [8]; above 1000 nM on KRAS G12D [9]. In addition, the Kd on KRAS Wild Type [10] and on KRAS G12D [11] was above 10000 nM throughout. Also, the IC50 in [3], in assay [4] and in assay [5] was above 9990 nM throughout.
Consider `Fc1c(-c2c(Cl)c(Cl)cc3[nH]ncc23)nc2c3c(nc(OC[C@@]45CCCN4C[C@H](F)C5)nc13)N1CCCC[C@H]1CO2` [Example 4, (8aS)-5-(5,6-dichloro-1H-indazol-4-yl)-4-fluoro-2-{[(2R,7aS)-2-fluorotetrahydro-1H-pyrrolizin-7a(5H)-yl]methoxy}-8,8a,9,10,11,12-hexahydro-7-oxa-1,3,6,12a-tetraazabenzo[4,5]cyclohepta[1,2,3-de]naphthalene], for which the Kd amounted to 2290 nM at KRAS Wild Type [1]; 4.29 nM at KRAS G12C [2]; 2270 nM on KRAS G12C [6]; 1590 nM on KRAS G12V [7]; 2.6 nM on KRAS G12V [8]; 2030 nM at KRAS G12D [9]. The values for the Kd at KRAS Wild Type [10] and on KRAS G12D [11] were 7.72 nM and 1.36 nM, respectively. The figures for the IC50 in assay [3], in assay [4] and in assay [5] were 534 nM, 3380 nM and 299 nM, respectively.
As for `C=C1CN2CCC[C@@]2(COc2nc3c4c(nc(-c5c(C)ccc6[nH]ncc56)c(F)c4n2)OC[C@@H]2COCCCN32)C1` [Example 5, (8aS)-4-fluoro-2-{[(7aS)-2-methylidenetetrahydro-1H-pyrrolizin-7a(5H)-yl]methoxy}-5-(5-methyl-1H-indazol-4-yl)-8a,9,12,13-tetrahydro-8H,11H-7,10-dioxa-1,3,6,13a-tetraazanaphtho[1,8-ab]heptalene], the Kd amounted to 1450 nM on KRAS Wild Type [1]; 1.95 nM on KRAS G12C [2]; 1560 nM on KRAS G12C [6]; 1430 nM on KRAS G12V [7]; 2.76 nM at KRAS G12V [8]; 1240 nM at KRAS G12D [9]. The Kd came out at 5.42 nM at KRAS Wild Type [10] and 2.2 nM at KRAS G12D [11]. Further, the IC50 (as a rule, the point on the concentration scale where inhibition reaches its midpoint) in [3] was 2320 nM; in assay [4] it was 2680 nM; in assay [5], 1040 nM.
On to `C=C1CN2CCC[C@@]2(COc2nc3c4c(nc(-c5c(Cl)ccc6[nH]ncc56)c(F)c4n2)OC[C@@H]2COCCCN32)C1` [Example 6, (8aS)-5-(5-chloro-1H-indazol-4-yl)-4-fluoro-2-{[(7aS)-2-methylidenetetrahydro-1H-pyrrolizin-7a(5H)-yl]methoxy}-8a,9,12,13-tetrahydro-8H,11H-7,10-dioxa-1,3,6,13a-tetraazanaphtho[1,8-ab]heptalene], for which the Kd at KRAS Wild Type [1] was determined as 546 nM; on KRAS G12C [2], 0.894 nM; at KRAS G12C [6], 635 nM; on KRAS G12V [7] it was 639 nM; at KRAS G12V [8] it was 1.23 nM; at KRAS G12D [9], 467 nM. In addition, the Kd on KRAS Wild Type [10] amounted to 2.51 nM; on KRAS G12D [11], 0.956 nM. Besides, the IC50 in assay [3] stood at 847 nM; in assay [4], 1320 nM; in assay [5], 404 nM.
Consider `C=C1CN2CCC[C@@]2(COc2nc3c4c(nc(-c5c(C(F)F)ccc6[nH]ncc56)c(F)c4n2)OC[C@@H]2COCCCN32)C1` [Example 10, (8aS)-5-[5-(difluoromethyl)-1H-indazol-4-yl]-4-fluoro-2-{[(7aS)-2-methylidenetetrahydro-1H-pyrrolizin-7a(5H)-yl]methoxy}-8a,9,12,13-tetrahydro-8H,11H-7,10-dioxa-1,3,6,13a-tetraazanaphtho[1,8-ab]heptalene], for which the Kd on KRAS Wild Type [1] amounted to 2880 nM; at KRAS G12C [2] it was 1.81 nM; on KRAS G12C [6], 3230 nM; at KRAS G12V [7] it was 2820 nM; at KRAS G12V [8], 3.9 nM; on KRAS G12D [9] it was 2550 nM. For the same compound, the Kd on KRAS Wild Type [10] came to 8.03 nM; on KRAS G12D [11] it was 2.07 nM. Also, the IC50 in [3] worked out at 4540 nM; in [4] it was 9530 nM; in assay [5] it was 475 nM.
For the compound `C=C1CN2CCC[C@@]2(COc2nc3c4c(nc(-c5c(Cl)c(Cl)cc6[nH]ncc56)c(F)c4n2)OC[C@@H]2COCCCN32)C1` [Example 11, (8aS)-5-(5,6-dichloro-1H-indazol-4-yl)-4-fluoro-2-{[(7aS)-2-methylidenetetrahydro-1H-pyrrolizin-7a(5H)-yl]methoxy}-8a,9,12,13-tetrahydro-8H,11H-7,10-dioxa-1,3,6,13a-tetraazanaphtho[1,8-ab]heptalene], the Kd was determined as 40 nM at KRAS Wild Type [1]; 0.051 nM on KRAS G12C [2]; 39 nM on KRAS G12C [6]; 29 nM on KRAS G12V [7]; 0.067 nM on KRAS G12V [8]; 19 nM at KRAS G12D [9]. Also, the figures for the Kd at KRAS Wild Type [10] and on KRAS G12D [11] were 0.091 nM and 0.024 nM, respectively. For the same compound, the IC50 in assay [3] turned out to be 136 nM; in [4], 315 nM; in assay [5] it was 21 nM.
As for `C=C1CN2CCC[C@@]2(COc2nc3c4c(nc(-c5c(C(F)(F)F)ccc6[nH]ncc56)c(F)c4n2)OC[C@@H]2COCCCN32)C1` [Example 12, (8aS)-4-fluoro-2-{[(7aS)-2-methylidenetetrahydro-1H-pyrrolizin-7a(5H)-yl]methoxy}-5-[5-(trifluoromethyl)-1H-indazol-4-yl]-8a,9,12,13-tetrahydro-8H,11H-7,10-dioxa-1,3,6,13a-tetraazanaphtho[1,8-ab]heptalene], the Kd turned out to be 95 nM at KRAS Wild Type [1]; 0.122 nM on KRAS G12C [2]; 84 nM at KRAS G12C [6]; 62 nM at KRAS G12V [7]; 0.106 nM on KRAS G12V [8]; 42 nM on KRAS G12D [9]. The figures for the Kd on KRAS Wild Type [10] and on KRAS G12D [11] were 0.257 nM and 0.116 nM, respectively. For the same compound, the IC50 in [3] came to 211 nM; in assay [4], 463 nM; in [5] it was 35 nM.
For the compound `C=C1CN2CCC[C@@]2(COc2nc3c4c(nc(-c5c(C(F)(F)F)c(Cl)cc6[nH]ncc56)c(F)c4n2)OC[C@@H]2COCCCN32)C1` [Example 13, (8aS)-5-[6-chloro-5-(trifluoromethyl)-1H-indazol-4-yl]-4-fluoro-2-{[(7aS)-2-methylidenetetrahydro-1H-pyrrolizin-7a(5H)-yl]methoxy}-8a,9,12,13-tetrahydro-8H,11H-7,10-dioxa-1,3,6,13a-tetraazanaphtho[1,8-ab]heptalene], the Kd came out at 5 nM on KRAS Wild Type [1]; 0.017 nM on KRAS G12C [2]; 4 nM on KRAS G12C [6]; 3 nM on KRAS G12V [7]; 0.072 nM on KRAS G12V [8]; 1 nM at KRAS G12D [9]. Also, the Kd is below 0.001 nM at KRAS Wild Type [10] and 0.106 nM on KRAS G12D [11]. The IC50 was determined as 26 nM in [3], 70 nM in assay [4] and 7 nM in [5].
Take `C[C@@H]1CCCc2cc3[nH]ncc3c(-c3nc4c5c(nc(OC[C@@]67CCCN6C/C(=C/F)C7)nc5c3F)N3CCCOC[C@H]3CO4)c21` [Example 55, (8aS)-4-fluoro-2-{[(2E,7aS)-2-(fluoromethylidene)tetrahydro-1H-pyrrolizin-7a(5H)-yl]methoxy}-5-[(5R)-5-methyl-5,6,7,8-tetrahydro-1H-benzo[f]indazol-4-yl]-8a,9,12,13-tetrahydro-8H,11H-7,10-dioxa-1,3,6,13a-tetraazanaphtho[1,8-ab]heptalene]: the Kd on KRAS Wild Type [1] was 3 nM; on KRAS G12C [6] it was 1 nM; on NRAS Wild Type it was above 10000 nM; on KRAS G12V [7] it was 2 nM; on HRAS Wild Type, above 10000 nM; at KRAS G12D [9] it was 2 nM. Further, the IC50 was 24 nM in assay [3], 6 nM in assay [4] and 13 nM in assay [5].
